Measured values reported in PMC9743598, “OR2AT4 and OR1A2 counterregulate molecular pathophysiological processes of steroid-resistant inflammatory lung diseases in human alveolar macrophages” (Molecular Medicine, 2022).

Target: T1, OR2AT4 (Homo sapiens, UniProt A6NND4)
T1 construct: endogenous full-length receptor in primary human alveolar macrophages from bronchoalveolar lavage; estimated 34 kDa, blot signal about 40 kDa
T1 sequence (A6NND4 1-320): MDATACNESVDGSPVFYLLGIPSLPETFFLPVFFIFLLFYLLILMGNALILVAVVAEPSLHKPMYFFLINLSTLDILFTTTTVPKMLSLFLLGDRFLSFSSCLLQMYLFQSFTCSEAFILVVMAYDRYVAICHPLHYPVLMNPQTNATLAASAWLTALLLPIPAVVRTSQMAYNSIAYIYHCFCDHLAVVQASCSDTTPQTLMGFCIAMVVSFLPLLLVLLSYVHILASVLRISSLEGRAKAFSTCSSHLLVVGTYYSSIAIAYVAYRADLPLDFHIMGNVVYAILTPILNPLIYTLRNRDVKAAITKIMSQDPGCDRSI
Experiment: Fura-2 single-cell calcium imaging, primary human alveolar macrophages
Type: cell-based
Conditions: agonist; endogenous receptor in native cells; Ringer solution

SMILES: CC1=CCC(CCC(C)C(C)O)C1(C)C (stereo not shown) [Sandalore]
- EC50: 190 µM
